Experimental data: patent US8765982B2, “Synergistic anticoagulant composition” (priority 2009, dated 2014)
“And” between values parts separate entries of the source, which are not always exact repeats. Identical values can stand only once.

Tests used:
[1] = test system: clotting factor VII; assay: Rat feeding study: level of active coagulation factor VII; format: in vivo, Sprague-Dawley rats; conditions: rats; for VII %: in feed
From the text: (§1) Male, albino, Sprague-Dawley rats (n=100) weighing 150-175 g were placed in quarantine for 1 week and then housed in individual cages. To determine food consumption, rat chow in containers was weighed at the beginning and end of the day to determine the weight of the food consumed by each animal. The containers were modified to prevent spillage. Rats were provided with water ad libitum. The chow was composed of rolled oats, sugar and peanut oil (92:4:4) (w:w:w) plus a standard vitamin/mineral mix.
(§2) Administration of anticoagulant was accomplished by uniformly dispersing the compound in the peanut oil used in the chow. […] […] Actual concentration of the drug to be applied will be based on the average food consumption determined for the rats.
(§3) Groups of rats were established as follows for each UWEC-K compound:
(§4) • A. Diet (Negative) controls: no anticoagulant additive to food • B. Positive controls: food treated with warfarin at LD50 concentration for a rat weighing 180 g • C. Control to evaluate potentiation or diminution of warfarin effect. […] The groups will be repeated for each of the two compounds. Four animals in each group were anaesthetized at 96 hours, and exsanguinated by cardiac puncture. Prior to exsanguination each animal was anesthetized by the intraperitoneal injection of 50 mg/kg of sodium pentothal. Blood was collected in 3.2% citrate in pediatric tubes and tested for prothrombin time and active coagulation factors VII and X. Factor V will also be tested as a marker of potential hepatic toxicity. […] Animals were monitored twice daily and any animals found in apparent distress with be immediately sacrificed as above.

[2] = test system: clotting factor X; assay: Rat feeding study: level of active coagulation factor X; format: in vivo, Sprague-Dawley rats; conditions: rats; for X %: in feed
From the text: as §1, §2, §3, §4

[3] = test system: blood clotting; assay: Rat feeding study: prothrombin time; format: in vivo, Sprague-Dawley rats; design: Pro Time: unit not given beside the values; conditions: rats; for Pro Time: in feed
From the text: as §1, §2, §3, §4

[4] = Rat feeding study: toxicity control (LDH, AST, ALT, Alkaline Phosphatase, creatinine in plasma and serum); conditions: rats, in feed
From the text: as §1, §2, §3, §4

[5] = test system: blood clotting; assay: Rat feeding study: overall effect on blood clotting and on the anticoagulant activity of warfarin; format: in vivo, Sprague-Dawley rats; conditions: rats; for effect on blood clotting time and levels of clotting factors, compound alone (in words): without warfarin, all three doses; for effect on the activity of warfarin (in words): 10 days of co-administration with warfarin
From the text: The containers were modified to prevent spillage. Rats were provided with water ad libitum.
Thus diets were constructed at 0.1 mpk/d. 1 mpk/d and 10 mpk/d.
Control to evaluate potentiation or diminution of warfarin effect.

[6] = test system: rat; conditions: for 5 days; cited from earlier work
[7] = test system: blood clotting; conditions: 0.25 mg/kg, rats of approximately 200 gm BW; cited from earlier work
[8] = 10 days, co-administered with warfarin

CC(=O)Oc1c2c(c(OC(C)=O)c3ccccc13)[C@H]1C=C[C@@H]2C1 [UWEC-K1]
VII % ([1]; 4 days, 0.025 mpk): 346.75% | VII % ([1]; 4 days, 0.25 mpk): 351.33% | VII % ([1]; 4 days, 2.5 mpk): 370.75% | VII % ([1]; 10 days, 0.025 mpk): 364.00% | VII % ([1]; 10 days, 0.25 mpk): 304.67% | VII % ([1]; 10 days, 2.5 mpk): 286.83% | X % ([2]; 4 days, 0.025 mpk): 74.50% | X % ([2]; 4 days, 0.25 mpk): 65.33% | X % ([2]; 4 days, 2.5 mpk): 64.25% | X % ([2]; 10 days, 0.025 mpk): 68.00% | X % ([2]; 10 days, 0.25 mpk): 61.17% | X % ([2]; 10 days, 2.5 mpk): 61.00% | Pro Time ([3]; 4 days, 0.025 mpk): 11.18 | Pro Time ([3]; 4 days, 0.25 mpk): 11.60 | Pro Time ([3]; 4 days, 2.5 mpk): 11.78 | Pro Time ([3]; 10 days, 0.025 mpk): 11.37 | Pro Time ([3]; 10 days, 0.25 mpk): 11.72 | Pro Time ([3]; 10 days, 2.5 mpk): 11.63 | ALT ([4]; 4 days, 0.025 mpk): 37.67 | AST ([4]; 4 days, 0.025 mpk): 121.00 | Alk Phos ([4]; 4 days, 0.025 mpk): 170.67 | Creat. ([4]; 4 days, 0.025 mpk): 0.15 | LDH ([4]; 4 days, 0.025 mpk): 1075.33 | ALT ([4]; 4 days, 0.25 mpk): 41.75 | AST ([4]; 4 days, 0.25 mpk): 152.75 | Alk Phos ([4]; 4 days, 0.25 mpk): 245.75 | Creat. ([4]; 4 days, 0.25 mpk): 0.10 | LDH ([4]; 4 days, 0.25 mpk): 1168.00 | ALT ([4]; 4 days, 2.5 mpk): 39.00 | AST ([4]; 4 days, 2.5 mpk): 125.67 | Alk Phos ([4]; 4 days, 2.5 mpk): 230.67 | Creat. ([4]; 4 days, 2.5 mpk): 0.10 | LDH ([4]; 4 days, 2.5 mpk): 1304.67 | ALT ([4]; 10 days, 0.025 mpk): 49.33 | AST ([4]; 10 days, 0.025 mpk): 134.67 | Alk Phos ([4]; 10 days, 0.025 mpk): 252.17 | Creat. ([4]; 10 days, 0.025 mpk): 0.13 | LDH ([4]; 10 days, 0.025 mpk): 1697.17 | ALT ([4]; 10 days, 0.25 mpk): 48.33 | AST ([4]; 10 days, 0.25 mpk): 121.33 | Alk Phos ([4]; 10 days, 0.25 mpk): 283.50 | Creat. ([4]; 10 days, 0.25 mpk): 0.15 | LDH ([4]; 10 days, 0.25 mpk): 1330.33 | ALT ([4]; 10 days, 2.5 mpk): 49.33 | AST ([4]; 10 days, 2.5 mpk): 124.67 | Alk Phos ([4]; 10 days, 2.5 mpk): 264.00 | Creat. ([4]; 10 days, 2.5 mpk): 0.15 | LDH ([4]; 10 days, 2.5 mpk): 1663.83 | effect on blood clotting time and levels of clotting factors, compound alone (in words) ([5]; 4 days): do not differ significantly from control | effect on the activity of warfarin (in words) [5]: significantly enhance the effect of warfarin | effect on blood clotting time and levels of clotting factors, compound alone (in words) ([5]; 10 days): do not differ significantly from control

CC(=O)Oc1c2c(c(OC(C)=O)c3ccccc13)[C@@H]1C[C@H]2C2OC21 (stereo partly drawn) [UWEC-K2]
levels of Factor VII reduced by a factor compared to control [1, 8]: ~20 | levels of Factor VII reduced by a factor relative to warfarin alone [1, 8]: 3 | VII % ([1]; 4 days, 0.025 mpk): 366.25% | VII % ([1]; 4 days, 0.25 mpk): 334.33% | VII % ([1]; 4 days, 2.5 mpk): 395.50% | VII % ([1]; 10 days, 0.025 mpk): 350.17% | VII % ([1]; 10 days, 0.25 mpk): 295.17% | VII % ([1]; 10 days, 2.5 mpk, 2.5 mg/kg): 325.33% and 286.83% | levels of Factor X reduced by a factor compared to control [2, 8]: ~20 | levels of Factor X reduced by a factor relative to warfarin alone [2, 8]: 4 | X % ([2]; 4 days, 0.025 mpk): 73.25% | X % ([2]; 4 days, 0.25 mpk): 61.00% | X % ([2]; 4 days, 2.5 mpk): 61.00% | X % ([2]; 10 days, 0.025 mpk): 64.17% | X % ([2]; 10 days, 0.25 mpk): 59.83% | X % ([2]; 10 days, 2.5 mpk, 2.5 mg/kg): 63.33% and 61.00% | prothrombin clotting time increase compared to control [3, 8]: almost an order of magnitude | prothrombin clotting time increased by a factor relative to warfarin alone [3, 8]: over 4 | Pro Time ([3]; 4 days, 0.025 mpk): 11.38 | Pro Time ([3]; 4 days, 0.25 mpk): 11.63 | Pro Time ([3]; 4 days, 2.5 mpk): 12.73 | Pro Time ([3]; 10 days, 0.025 mpk): 11.58 | Pro Time ([3]; 10 days, 0.25 mpk): 11.55 | Pro Time ([3]; 10 days, 2.5 mpk, 2.5 mg/kg): 11.57 and 11.63 | ALT ([4]; 4 days, 0.025 mpk): 40.25 | AST ([4]; 4 days, 0.025 mpk): 104.75 | Alk Phos ([4]; 4 days, 0.025 mpk): 213.50 | Creat. ([4]; 4 days, 0.025 mpk): 0.10 | LDH ([4]; 4 days, 0.025 mpk): 758.75 | ALT ([4]; 4 days, 0.25 mpk): 45.00 | AST ([4]; 4 days, 0.25 mpk): 135.33 | Alk Phos ([4]; 4 days, 0.25 mpk): 240.33 | Creat. ([4]; 4 days, 0.25 mpk): 0.10 | LDH ([4]; 4 days, 0.25 mpk): 1496.33 | ALT ([4]; 4 days, 2.5 mpk): 35.50 | AST ([4]; 4 days, 2.5 mpk): 114.75 | Alk Phos ([4]; 4 days, 2.5 mpk): 217.25 | Creat. ([4]; 4 days, 2.5 mpk): 0.10 | LDH ([4]; 4 days, 2.5 mpk): 1026.50 | ALT ([4]; 10 days, 0.025 mpk): 48.17 | AST ([4]; 10 days, 0.025 mpk): 132.33 | Alk Phos ([4]; 10 days, 0.025 mpk): 241.67 | Creat. ([4]; 10 days, 0.025 mpk): 0.10 | LDH ([4]; 10 days, 0.025 mpk): 1552.33 | ALT ([4]; 10 days, 0.25 mpk): 47.50 | AST ([4]; 10 days, 0.25 mpk): 118.67 | Alk Phos ([4]; 10 days, 0.25 mpk): 274.17 | Creat. ([4]; 10 days, 0.25 mpk): 0.12 | LDH ([4]; 10 days, 0.25 mpk): 1445.50 | ALT ([4]; 10 days, 2.5 mpk): 48.50 | AST ([4]; 10 days, 2.5 mpk): 110.67 | Alk Phos ([4]; 10 days, 2.5 mpk): 264.17 | Creat. ([4]; 10 days, 2.5 mpk): 0.15 | LDH ([4]; 10 days, 2.5 mpk): 1234.50 | effect on blood clotting time and levels of clotting factors, compound alone (in words) ([5]; 4 days): do not differ significantly from control | effect on the activity of warfarin (in words) [5]: significantly enhance the effect of warfarin | effect on blood clotting time and levels of clotting factors, compound alone (in words) ([5]; 10 days): do not differ significantly from control

CC(=O)CC(c1ccccc1)c1c(O)c2ccccc2oc1=O (stereo not drawn) [Warfarin, warfarin, reference compound]
VII % ([1]; 4 days, 0.25 mpk): 29.54% | VII % ([1]; 10 days, 0.25 mpk): 56.18% | LD50 [6]: 1 mg/kg/day | INR maintained [7]: 2.6 | X % ([2]; 4 days, 0.25 mpk): 10.00% | X % ([2]; 10 days, 0.25 mpk): 14.85% | Pro Time ([3]; 4 days, 0.25 mpk): 36.98 | Pro Time ([3]; 10 days, 0.25 mpk): 24.38 | ALT ([4]; 4 days, 0.25 mpk): 46.00 | AST ([4]; 4 days, 0.25 mpk): 123.25 | Alk Phos ([4]; 4 days, 0.25 mpk): 242.30 | Creat. ([4]; 4 days, 0.25 mpk): 0.11 | LDH ([4]; 4 days, 0.25 mpk): 1168.88 | ALT ([4]; 10 days, 0.25 mpk): 48.09 | AST ([4]; 10 days, 0.25 mpk): 91.82 | Alk Phos ([4]; 10 days, 0.25 mpk): 249.73 | Creat. ([4]; 10 days, 0.25 mpk): 0.15 | LDH ([4]; 10 days, 0.25 mpk): 626.18
